These results are taken from ChEMBL document CHEMBL3507680, “University of Dundee, Gates Library screen for HepG2 cell viability”.

The data set can be described thus: Human HepG2 cell viability assay in 384 well format. Further details: dose 125 nL, time 70.5 hour; concentration not given beside the values. It is filed as toxicity, cell-based. As to conditions: HepG2 cells, read-out: Inhibition.
Take `CCOCCN1CCN(CC(O)c2ccc(OC)cc2)CC1` (stereo unspecified): the cytotoxicity at 70.5 h was determined as 36.2%.

Consider `CSCc1cc(C(=O)NC2(C#N)CCSC2)ccc1F` (stereo unspecified), for which the cytotoxicity at 70.5 h was -8.71%.

For the molecule `CN1CCN(c2ccc(Br)cc2NC(=O)c2ccco2)CC1`, the cytotoxicity at 70.5 h turned out to be 2.12%.

As to `CCN(C(=O)c1cc(C)oc1C)C1CC1`, the cytotoxicity at 70.5 h is -4.05%.

For the molecule `CC(C)N(CCCNC(=O)C1CCOCC1)S(C)(=O)=O`, the cytotoxicity at 70.5 h was -5.89%.

`CC1(c2ccc(Br)cc2)CC(=O)N(CCC(N)=O)C1=O` (stereo unspecified): the cytotoxicity at 70.5 h was -6.18%.

Turning to `CC(C)N(CCCNC(=O)C1CCCN(C(N)=O)C1)S(C)(=O)=O` (stereo unspecified), the cytotoxicity at 70.5 h was -5.29%.

Take `CCN(C(=O)Nc1cc(C)on1)C(C)c1cccc(O)c1` (stereo unspecified): the cytotoxicity at 70.5 h is -9.79%.

For `CCOCCN1CCN(CC(O)c2ccc(C)c(C)c2)CC1` (stereo unspecified), the cytotoxicity at 70.5 h is -10.1%.

For `CC(CO)NC(=O)c1ccc(NCc2ccc(F)c(F)c2)cc1` (stereo unspecified), the cytotoxicity at 70.5 h is -0.038%.

For `COCCNC(=O)Cn1cc(NC(=O)c2cc(Cl)c(Cl)n2C)cn1`, the cytotoxicity at 70.5 h amounted to 0.862%.

As to `COCCNC(=O)Cn1cc(NC(=O)c2ccc(C(C)(C)C)cc2)cn1`, the cytotoxicity at 70.5 h was 33.3%.

For the molecule `CCOc1ccc(C(F)(F)F)cc1NC(=O)NCc1noc(C)n1`, the cytotoxicity at 70.5 h was -8.58%.

As for `N#CC1(NC(=O)c2ccc(F)c(Br)c2)CCSC1` (stereo unspecified), the cytotoxicity at 70.5 h is -8.42%.

Turning to `O=C(Nc1cccc(OCC(F)F)n1)c1ccncc1`, the cytotoxicity at 70.5 h is -8.53%.

For `O=C(Nc1cccc(OCC(F)F)n1)c1ccncc1F`, the cytotoxicity at 70.5 h is -6.41%.

With `CC(CO)NC(=O)c1ccc(NCc2cc(C#N)ccc2F)cc1` (stereo unspecified), the cytotoxicity at 70.5 h is -0.552%.

For the molecule `O=C(CN(CC1CCC1)CC(F)(F)F)N1CCOCC1`, the cytotoxicity at 70.5 h was -5.14%.

For `Cc1nc(CSCc2ccc(OCC(F)(F)F)nc2)no1`, the cytotoxicity at 70.5 h was -7.83%.

Regarding `CCOc1cccc(CSC(C)c2nc(C)no2)n1` (stereo unspecified), the cytotoxicity at 70.5 h was -3.8%.

For the molecule `Cc1ccc(S(=O)(=O)N(CCO)C2CC2)cc1N(C)C`, the cytotoxicity at 70.5 h was determined as 2.04%.

Take `COc1c(C)cnc(CN2CCCC2c2noc(C)n2)c1C` (stereo unspecified): the cytotoxicity at 70.5 h turned out to be 3.95%.

Regarding `CCn1cc(CNCCNc2ncc(Cl)cc2Cl)cn1`, the cytotoxicity at 70.5 h turned out to be 10.4%.

`CCCNC(=O)c1[nH]nc(C2CC2)c1Br`: the cytotoxicity at 70.5 h was -5.95%.

For `COC(=O)c1ccc(OCCn2cnc(C#N)n2)cc1`, the cytotoxicity at 70.5 h was -24.3%.

Take `N#Cc1ccc(CN(CC(N)=O)Cc2cccc(F)c2)cc1`: the cytotoxicity at 70.5 h is -2.99%.

Turning to `Cc1nc(CNC(=O)Nc2c(C)n[nH]c2C)cs1`, the cytotoxicity at 70.5 h was -9.25%.

As for `CN(CCc1cccc2ccccc12)Cc1nc(N)nc(N(C)C)n1`, the cytotoxicity at 70.5 h is 28.3%.

With `CC(C)N(CC(N)=O)C(=O)CCC(=O)c1ccc(F)cc1F`, the cytotoxicity at 70.5 h was -6.11%.

In the case of `Cc1cc(Br)ccc1C(=O)Nc1c(C(N)=O)n[nH]c1C`, the cytotoxicity at 70.5 h was -9.24%.

`Cc1ccc(F)c(C(=O)Nc2c(C(N)=O)n[nH]c2C)c1`: the cytotoxicity at 70.5 h is -10.1%.

For `Cc1cccc(C(=O)Nc2c(C(N)=O)n[nH]c2C)c1C`, the cytotoxicity at 70.5 h is -5.24%.

As to `Cc1nnc(C(C)NCC2(c3c(F)cccc3F)CCCC2)o1` (stereo unspecified), the cytotoxicity at 70.5 h was -2.47%.

Regarding `Cc1ccc(C(=O)NCC2(O)CCOCC2)cc1Br`, the cytotoxicity at 70.5 h is -7.13%.

With `CN(C)c1ccc(C(=O)NCC2(O)CCOCC2)cc1`, the cytotoxicity at 70.5 h was -8.78%.

`Cc1nnc(NCC2(c3ccc(Cl)cc3Cl)CCOCC2)c(C#N)c1C`: the cytotoxicity at 70.5 h came out at 13.2%.

`Cc1nnc(NCC2(c3ccccc3)CC2)c(C#N)c1C`: the cytotoxicity at 70.5 h is -0.882%.

Consider `Cc1ccccc1C1(CNc2nnc(C)c(C)c2C#N)CCOCC1`, for which the cytotoxicity at 70.5 h was -6.42%.

For `Cn1cc(Br)c(=O)c(NS(=O)(=O)c2ccc(F)cc2)c1`, the cytotoxicity at 70.5 h came to 16.4%.

Consider `Clc1ccc(OCCN2CCN(CCn3cncn3)CC2)cc1`, for which the cytotoxicity at 70.5 h stood at 13.2%.

For `CCc1nc(CC(=O)Nc2cnn(CC3CCCO3)c2)cs1` (stereo unspecified), the cytotoxicity at 70.5 h is -7.79%.
